Results: ChEMBL document CHEMBL1909046, “DrugMatrix in vitro pharmacology data”
*1 amine or outer side, *2 acyl side, *3 side chain or, on linkers, in order; H or OH if unused. Where a SMILES comes first, the peptide text is derived from it. Bridges are numbered along the chain shown (N, C = ends). Roman numbers before positions name the chains, in order. [ ]: non-standard residue; d: D form. Actinocin(1to9) = Cc1c2oc3c(C)ccc(C(=O)[*:2])c3nc-2c(C(=O)[*:1])c(N)c1=O; NMeV = CN[C@H](C(=O)O)C(C)C; Sar = CNCC(=O)O

Columns and labels:
[1] = biological target: T1, Alpha-1D adrenergic receptor (Homo sapiens, UniProt P25100); format: cell membranes, HEK293, Membrane; further: in other assays of this panel Not Active means under 50% inhibition at 10 µM
T1 sequence (P25100 whole entry): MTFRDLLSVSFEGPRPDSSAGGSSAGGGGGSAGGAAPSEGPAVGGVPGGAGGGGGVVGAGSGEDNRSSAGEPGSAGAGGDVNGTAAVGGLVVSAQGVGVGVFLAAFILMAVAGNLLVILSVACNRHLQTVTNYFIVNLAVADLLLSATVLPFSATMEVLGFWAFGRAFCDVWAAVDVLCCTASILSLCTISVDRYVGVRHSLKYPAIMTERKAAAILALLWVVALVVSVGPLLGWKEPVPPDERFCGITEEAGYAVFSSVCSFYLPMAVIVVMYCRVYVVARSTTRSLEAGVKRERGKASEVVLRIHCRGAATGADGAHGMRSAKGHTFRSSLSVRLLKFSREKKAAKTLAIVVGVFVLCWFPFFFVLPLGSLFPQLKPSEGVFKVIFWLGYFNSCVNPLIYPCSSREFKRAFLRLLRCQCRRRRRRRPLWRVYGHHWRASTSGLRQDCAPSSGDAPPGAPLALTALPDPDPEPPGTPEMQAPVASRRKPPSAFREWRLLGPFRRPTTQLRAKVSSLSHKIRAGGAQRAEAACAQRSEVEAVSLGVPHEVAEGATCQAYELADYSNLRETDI

Cytochrome P450 1A2 = biological target: T2, Cytochrome P450 1A2 (Homo sapiens, UniProt P05177); conditions: bti-tn-5b1-4; further: in other assays of this panel Not Active means under 50% inhibition at 10 µM
T2 sequence (P05177 whole entry): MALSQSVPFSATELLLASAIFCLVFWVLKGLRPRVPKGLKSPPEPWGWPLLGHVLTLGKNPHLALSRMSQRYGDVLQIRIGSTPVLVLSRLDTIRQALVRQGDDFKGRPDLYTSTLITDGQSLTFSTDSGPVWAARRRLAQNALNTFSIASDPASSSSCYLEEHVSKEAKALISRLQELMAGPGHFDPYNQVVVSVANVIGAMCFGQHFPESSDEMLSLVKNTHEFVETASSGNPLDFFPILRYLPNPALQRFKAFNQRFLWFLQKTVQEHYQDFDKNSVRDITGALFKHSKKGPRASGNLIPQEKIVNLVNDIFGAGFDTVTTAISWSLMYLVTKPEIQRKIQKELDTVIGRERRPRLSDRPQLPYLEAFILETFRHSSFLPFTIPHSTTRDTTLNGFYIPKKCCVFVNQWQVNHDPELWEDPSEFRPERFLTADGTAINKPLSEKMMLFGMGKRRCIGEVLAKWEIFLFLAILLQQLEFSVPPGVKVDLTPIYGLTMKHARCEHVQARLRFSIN

[2] = biological target: 5-hydroxytryptamine receptor 6 (Homo sapiens, UniProt P50406); format: cell membranes, HeLa, Membrane; conditions: hela; further: in other assays of this panel Not Active means under 50% inhibition at 10 µM
D(4) dopamine receptor = biological target: T3, D(4) dopamine receptor (Homo sapiens, UniProt P21917); assay: DRUGMATRIX: Dopamine D4.2 radioligand binding (ligand: [3H] Spiperone); format: cell membranes, CHO-K1, Membrane; conditions: cho-k1; Not Active = under 50% inhibition at 10 µM
T3 sequence (P21917 whole entry): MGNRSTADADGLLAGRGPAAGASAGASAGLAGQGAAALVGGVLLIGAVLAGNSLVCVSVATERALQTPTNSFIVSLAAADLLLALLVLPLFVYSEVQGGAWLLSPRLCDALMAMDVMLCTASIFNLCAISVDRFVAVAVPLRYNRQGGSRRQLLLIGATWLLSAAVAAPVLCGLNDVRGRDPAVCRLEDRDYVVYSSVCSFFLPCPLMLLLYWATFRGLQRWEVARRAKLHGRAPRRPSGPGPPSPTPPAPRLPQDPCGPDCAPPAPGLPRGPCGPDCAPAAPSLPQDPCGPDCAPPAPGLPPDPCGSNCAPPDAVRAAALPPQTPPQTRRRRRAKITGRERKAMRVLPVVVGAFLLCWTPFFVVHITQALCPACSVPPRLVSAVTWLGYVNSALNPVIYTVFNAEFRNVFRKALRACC

[3] = biological target: T4, Angiotensin-converting enzyme (Oryctolagus cuniculus, UniProt P12822); format: tissue-based, Lung;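 further: enzymatic inhibition of angiotensin-converting enzyme measured with FAPGG as the substrate; in other assays of this panel Not Active means under 50% inhibition at 10 µM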
T4 sequence (P12822 whole entry): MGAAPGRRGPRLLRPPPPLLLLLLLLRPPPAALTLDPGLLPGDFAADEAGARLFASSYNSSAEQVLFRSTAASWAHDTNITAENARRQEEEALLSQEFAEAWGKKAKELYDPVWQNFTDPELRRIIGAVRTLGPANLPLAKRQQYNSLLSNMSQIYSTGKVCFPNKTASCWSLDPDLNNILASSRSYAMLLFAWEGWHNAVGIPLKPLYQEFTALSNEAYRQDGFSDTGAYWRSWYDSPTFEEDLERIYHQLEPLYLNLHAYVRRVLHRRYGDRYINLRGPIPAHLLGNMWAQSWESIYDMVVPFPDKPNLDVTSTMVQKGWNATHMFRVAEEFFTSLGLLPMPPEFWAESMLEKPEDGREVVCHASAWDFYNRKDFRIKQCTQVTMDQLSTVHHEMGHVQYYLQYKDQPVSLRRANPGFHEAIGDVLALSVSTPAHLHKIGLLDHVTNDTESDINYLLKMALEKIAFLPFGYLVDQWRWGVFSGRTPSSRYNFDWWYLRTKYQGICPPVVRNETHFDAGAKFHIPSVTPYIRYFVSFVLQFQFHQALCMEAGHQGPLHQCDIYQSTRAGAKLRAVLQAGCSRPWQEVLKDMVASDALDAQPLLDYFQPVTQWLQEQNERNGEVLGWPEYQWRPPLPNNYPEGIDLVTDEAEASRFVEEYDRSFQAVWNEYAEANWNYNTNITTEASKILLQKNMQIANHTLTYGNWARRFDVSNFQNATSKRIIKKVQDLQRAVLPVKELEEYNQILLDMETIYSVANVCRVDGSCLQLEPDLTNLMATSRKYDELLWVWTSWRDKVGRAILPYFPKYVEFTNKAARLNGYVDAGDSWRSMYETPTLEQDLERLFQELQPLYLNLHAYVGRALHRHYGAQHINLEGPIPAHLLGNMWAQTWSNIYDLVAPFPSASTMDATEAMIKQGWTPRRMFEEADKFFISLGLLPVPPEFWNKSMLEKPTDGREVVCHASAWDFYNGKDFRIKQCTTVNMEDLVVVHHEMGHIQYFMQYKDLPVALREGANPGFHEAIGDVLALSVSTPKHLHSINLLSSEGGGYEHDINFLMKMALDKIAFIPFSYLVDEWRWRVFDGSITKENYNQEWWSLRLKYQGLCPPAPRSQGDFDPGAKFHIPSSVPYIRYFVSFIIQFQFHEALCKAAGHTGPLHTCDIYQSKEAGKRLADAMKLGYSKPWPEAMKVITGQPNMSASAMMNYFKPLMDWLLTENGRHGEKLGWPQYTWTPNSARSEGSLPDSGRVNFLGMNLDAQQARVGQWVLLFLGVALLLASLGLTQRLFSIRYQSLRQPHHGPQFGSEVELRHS

Chain of 5-hydroxytryptamine receptor 6 (P50406 whole entry): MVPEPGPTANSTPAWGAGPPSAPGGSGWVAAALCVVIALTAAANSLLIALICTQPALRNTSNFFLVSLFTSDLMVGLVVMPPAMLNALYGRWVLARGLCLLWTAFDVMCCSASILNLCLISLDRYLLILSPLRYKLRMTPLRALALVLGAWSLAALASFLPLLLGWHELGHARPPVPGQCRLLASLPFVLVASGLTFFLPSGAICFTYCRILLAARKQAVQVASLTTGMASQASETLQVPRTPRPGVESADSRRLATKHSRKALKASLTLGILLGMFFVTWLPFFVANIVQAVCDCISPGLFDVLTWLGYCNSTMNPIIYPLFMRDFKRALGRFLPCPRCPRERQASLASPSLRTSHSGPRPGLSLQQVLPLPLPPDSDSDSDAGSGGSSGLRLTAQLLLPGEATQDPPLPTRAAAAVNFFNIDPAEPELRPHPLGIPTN

Row | SMILES | IC50 ([1]; hek293) | IC50 (Cytochrome P450 1A2) | Ki (Cytochrome P450 1A2) | IC50 [2] | IC50 (D(4) dopamine receptor) | IC50 [3] | Ki ([1]; hek293) | Ki [2] | Ki (D(4) dopamine receptor) | Ki [3] | IC50 ([1]; read-out: IC50) | Ki ([1]; read-out: Ki)
1 | Cc1ccc(/N=C/N(C)/C=N/c2ccc(C)cc2C)c(C)c1 [AMITRAZ] | Not Active | Not Active | Not Active | Not Active | Not Active | Not Active |  |  |  |  |  | 
2 | COc1ccc(C[C@H]2NC[C@H](O)[C@H]2OC(C)=O)cc1 [ANISOMYCIN] | Not Active | Not Active | Not Active | Not Active | Not Active | Not Active | Not Active | Not Active | Not Active | Not Active |  | 
3 | Nc1ncn([C@@H]2O[C@H](CO)[C@@H](O)[C@H]2O)c(=O)n1 [AZACITIDINE] | Not Active | Not Active | Not Active | Not Active | Not Active | Not Active |  |  |  |  |  | 
4 | CN(C)C(=O)Oc1cc(OC(=O)N(C)C)cc(C(O)CNC(C)(C)C)c1 (stereo unspecified) [BAMBUTEROL] | Not Active | Not Active | Not Active | Not Active | Not Active | Not Active |  |  |  |  |  | 
5 | CNCCc1ccccn1 [BETAHISTINE] | Not Active | Not Active | Not Active | Not Active | Not Active | Not Active |  |  |  |  |  | 
6 | CC(C)C(Br)C(=O)NC(N)=O (stereo unspecified) [BROMISOVALUM] | Not Active | Not Active | Not Active | Not Active | Not Active | Not Active |  |  |  |  |  | 
7 | CCCC1O[C@@H]2C[C@H]3[C@@H]4CCC5=CC(=O)C=C[C@]5(C)[C@H]4[C@@H](O)C[C@]3(C)[C@]2(C(=O)CO)O1 (stereo partly specified) [BUDESONIDE] | Not Active | Not Active | Not Active | Not Active | Not Active | Not Active |  |  |  |  |  | 
8 | CC(NC(C)(C)C)C(=O)c1cccc(Cl)c1 (stereo unspecified) [BUPROPION] | Not Active | Not Active | Not Active | Not Active | Not Active | Not Active |  |  |  |  |  | 
9 | CN(Cc1ccc(C(C)(C)C)cc1)Cc1cccc2ccccc12 [BUTENAFINE] | Not Active | Not Active | Not Active | Not Active | Not Active | Not Active |  |  |  |  |  | 
10 | Cc1ccc(-c2cc(C(F)(F)F)nn2-c2ccc(S(N)(=O)=O)cc2)cc1 [CELECOXIB] | Not Active | Not Active | Not Active | Not Active | Not Active | Not Active |  |  |  |  |  | 
11 | O=C(O)CCCc1ccc(N(CCCl)CCCl)cc1 [CHLORAMBUCIL] | Not Active | Not Active | Not Active | Not Active | Not Active | Not Active |  |  |  |  |  | 
12 | C[C@H](CCC(=O)O)[C@H]1CC[C@H]2[C@@H]3[C@H](O)C[C@@H]4C[C@H](O)CC[C@]4(C)[C@H]3C[C@H](O)[C@]12C [CHOLIC ACID] | Not Active | Not Active | Not Active | Not Active | Not Active | Not Active |  |  |  |  |  | 
13 | Cc1cc(C2CCCCC2)n(O)c(=O)c1 [CICLOPIROX] | Not Active | Not Active | Not Active | Not Active | Not Active | Not Active |  |  |  |  |  | 
14 | CC1=C2C(=CO[C@H](C)[C@H]2C)C(O)=C(C(=O)O)C1=O [CITRININ] | Not Active | Not Active | Not Active | Not Active | Not Active | Not Active |  |  |  |  |  | 
15 | CC(C)(C)NCC(O)c1cc(Cl)c(N)c(Cl)c1 (stereo unspecified) [CLENBUTEROL] | Not Active | Not Active | Not Active | Not Active | Not Active | Not Active |  |  |  |  |  | 
16 | Clc1cccc(Cl)c1NC1=NCCN1 [CLONIDINE] |  | Not Active | Not Active | Not Active | Not Active | Not Active |  |  |  |  | 1.21 µM | 0.595 µM
17 | Cc1cc(C(C#N)c2ccc(Cl)cc2)c(Cl)cc1NC(=O)c1cc(I)cc(I)c1O (stereo unspecified) [CLOSANTEL] | Not Active | Not Active | Not Active | Not Active | Not Active | Not Active |  |  |  |  |  | 
18 | Cc1onc(-c2ccccc2Cl)c1C(=O)N[C@@H]1C(=O)N2[C@@H]1SC(C)(C)[C@@H]2C(=O)O [CLOXACILLIN] | Not Active | Not Active | Not Active | Not Active | Not Active | Not Active |  |  |  |  |  | 
19 | CC1CC(OC(=O)C(O)c2ccccc2)CC(C)(C)C1 (stereo unspecified) [CYCLANDELATE] | Not Active | Not Active | Not Active | Not Active | Not Active | Not Active |  |  |  |  |  | 
20 | Cc1c2oc3c(C)ccc(C(=O)N[C@@H]4C(=O)N[C@H](C(C)C)C(=O)N5CCC[C@H]5C(=O)N(C)CC(=O)N(C)[C@@H](C(C)C)C(=O)O[C@@H]4C)c3nc-2c(C(=O)N[C@@H]2C(=O)N[C@H](C(C)C)C(=O)N3CCC[C@H]3C(=O)N(C)CC(=O)N(C)[C@@H](C(C)C)C(=O)O[C@@H]2C)c(N)c1=O [DACTINOMYCIN] (I: T[dV]P[Sar][NMeV] / II: T[dV]P[Sar][NMeV]; ester I:1-I:C, II:1-II:C; linker I:N-II:N via Actinocin(1to9)) | Not Active | Not Active | Not Active | Not Active | Not Active | Not Active |  |  |  |  |  | 
21 | Cc1c(O)c(=O)ccn1C [DEFERIPRONE] | Not Active | Not Active | Not Active | Not Active | Not Active | Not Active |  |  |  |  |  | 
